Publication PMC6726858, “Discovery and characterization of a small‐molecule enteropeptidase inhibitor, SCO‐792” (Pharmacology Research & Perspectives, 2019)
Read-outs that look alike come from different tables or passages of the source. Blank lines part the entries; values can stand above or below the molecule they belong to. *: point of attachment. βNA = c1ccc2cc(N*)ccc2c1

Assays:
[1] = target: T1, recombinant light chain of human enteropeptidase (Homo sapiens, UniProt P98073); assay: Determination of K m value of enteropeptidase for substrates; type: biochemical; details: Michaelis–Menten fit of initial velocities
T1 construct: purchased ITSI‐Biosciences (Johnstown, PA)
T1 sequence (P98073 785-1019 limits assumed): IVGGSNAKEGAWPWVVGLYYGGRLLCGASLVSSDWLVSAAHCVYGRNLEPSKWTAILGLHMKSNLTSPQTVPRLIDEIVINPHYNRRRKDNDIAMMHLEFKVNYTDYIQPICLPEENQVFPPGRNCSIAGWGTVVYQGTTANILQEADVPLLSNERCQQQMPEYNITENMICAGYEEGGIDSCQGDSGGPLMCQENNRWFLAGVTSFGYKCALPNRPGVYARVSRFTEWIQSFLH
From the text: Enteropeptidase is produced as a proenteropeptidase in enterocytes, the activation of which requires digestion to a light chain and a heavy chain. The light chain contains the catalytic active site, whereas the disulfide‐linked heavy chain provides the anchor to the brush border membrane. Thus, we used recombinant light chain of human enteropeptidase to discover its inhibitors. To identify small‐molecule enteropeptidase inhibitors, we designed two specific dual‐labeled substrates and developed enzyme assay systems. In the assay, the energy of the donor of an uncleaved substrate is transferred to the proximal acceptor at the opposite side of the substrate. When protease cleaves the substrate, the pair separates and the donor no longer transfers its emission to the acceptor, which leads to an increase in the fluorescence intensity observed from the donor.15 Enteropeptidase activity was measured with our designed substrates, Cy5‐labeled (Figure 1C) and 5FAM‐labeled substrates (Figure 1E), and commercially available substrate, H‐Gly‐Asp‐Asp‐Asp‐Asp‐Lys‐βNA (GDDDDK‐βNA), naphthylamine (Figure 1A). In our assay system, the fluorescence signal from the enzyme reaction increased in a time‐dependent manner. […]

[2] = target: T2, factor XIIa (Homo sapiens, UniProt P00748); assay: Serine protease selectivity: factor XIIa; type: biochemical; details: at 10 μmol/L; read-out: inhibitory activity against factor XIIa
T2 sequence (P00748 373-615 limits assumed): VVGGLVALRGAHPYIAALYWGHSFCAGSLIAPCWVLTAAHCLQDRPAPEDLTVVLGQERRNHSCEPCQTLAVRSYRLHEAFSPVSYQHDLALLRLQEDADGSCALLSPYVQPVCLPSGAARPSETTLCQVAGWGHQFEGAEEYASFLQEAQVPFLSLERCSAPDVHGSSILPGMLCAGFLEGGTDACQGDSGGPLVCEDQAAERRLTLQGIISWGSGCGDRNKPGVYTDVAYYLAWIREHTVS

[3] = Pharmacokinetic study in rats; type: in vivo, Sprague‐Dawley rats; details: for AUC(0-t): read-out: AUC0–24 h
Method: Male Sprague‐Dawley rats were obtained from Charles River Laboratories Japan, Inc. (Yokohama, Japan). A pharmacokinetic study was conducted when the animals were 8 weeks old. For oral administration, SCO‐792 was suspended in a 0.5% (w/v) methylcellulose solution. For intravenous administration, SCO‐792 was dissolved in DMSO and added with saline to prepare a dosing formulation at a concentration of 0.2 mg/mL (DMSO:saline = 2:8 (v/v)). The oral dosing formulations were mixed well and given to fed‐male rats at single doses of 10 mg/5 ml/kg using polypropylene syringes with gavage needles. The intravenous dosing formulation was injected into the femoral vein of fed‐male rats at a dose of 0.2 mg/1 ml/kg using polypropylene syringes with needles under anesthesia with isoflurane. The blood was collected at the indicated time points, and the plasma concentrations of SCO‐792 were determined by high‐performance liquid chromatography/tandem mass spectrometry.

[4] = target: thrombin (Homo sapiens, UniProt P00734); assay: Serine protease selectivity: thrombin; type: biochemical; details: at 10 μmol/L; read-out: inhibitory activity against thrombin
[5] = target: plasmin (Homo sapiens, UniProt P00747); assay: Serine protease selectivity: plasmin (Panlabs Enzymatic Assay Services, Eurofins); type: biochemical
plasmin, sequence (P00747 581-810 limits assumed, species assumed): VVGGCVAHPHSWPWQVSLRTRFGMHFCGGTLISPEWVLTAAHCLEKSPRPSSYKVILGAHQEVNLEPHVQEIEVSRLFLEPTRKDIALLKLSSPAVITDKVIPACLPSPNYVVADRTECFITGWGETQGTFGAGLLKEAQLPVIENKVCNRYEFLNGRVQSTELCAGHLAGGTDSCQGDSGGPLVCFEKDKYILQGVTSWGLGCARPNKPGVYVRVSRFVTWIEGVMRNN
plasmin, sequence (P00747 97-580 partner limits assumed, species assumed): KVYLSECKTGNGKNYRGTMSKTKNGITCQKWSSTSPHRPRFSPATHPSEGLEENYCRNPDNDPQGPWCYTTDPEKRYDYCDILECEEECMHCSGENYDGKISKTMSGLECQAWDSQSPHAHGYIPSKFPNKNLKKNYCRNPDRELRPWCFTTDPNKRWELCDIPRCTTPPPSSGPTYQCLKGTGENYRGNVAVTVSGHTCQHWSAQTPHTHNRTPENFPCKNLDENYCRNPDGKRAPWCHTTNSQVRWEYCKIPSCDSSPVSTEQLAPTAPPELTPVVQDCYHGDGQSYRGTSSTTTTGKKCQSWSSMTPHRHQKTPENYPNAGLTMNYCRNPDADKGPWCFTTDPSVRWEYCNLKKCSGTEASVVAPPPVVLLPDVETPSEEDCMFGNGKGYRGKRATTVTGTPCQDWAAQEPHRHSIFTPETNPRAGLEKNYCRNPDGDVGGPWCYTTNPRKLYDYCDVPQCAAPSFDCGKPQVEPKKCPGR

[6] = target: plasma kallikrein (Homo sapiens, UniProt P03952); assay: Serine protease selectivity: plasma kallikrein (Panlabs Enzymatic Assay Services, Eurofins); type: biochemical
plasma kallikrein, sequence (P03952 391-638 limits assumed, species assumed): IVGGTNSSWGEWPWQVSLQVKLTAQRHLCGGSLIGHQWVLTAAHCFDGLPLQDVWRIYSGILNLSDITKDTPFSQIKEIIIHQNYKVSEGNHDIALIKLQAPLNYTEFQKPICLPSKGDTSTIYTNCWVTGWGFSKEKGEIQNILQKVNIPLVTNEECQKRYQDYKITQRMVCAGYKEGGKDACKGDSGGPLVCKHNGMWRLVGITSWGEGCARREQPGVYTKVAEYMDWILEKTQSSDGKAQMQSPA
plasma kallikrein, sequence (P03952 20-390 partner limits assumed, species assumed): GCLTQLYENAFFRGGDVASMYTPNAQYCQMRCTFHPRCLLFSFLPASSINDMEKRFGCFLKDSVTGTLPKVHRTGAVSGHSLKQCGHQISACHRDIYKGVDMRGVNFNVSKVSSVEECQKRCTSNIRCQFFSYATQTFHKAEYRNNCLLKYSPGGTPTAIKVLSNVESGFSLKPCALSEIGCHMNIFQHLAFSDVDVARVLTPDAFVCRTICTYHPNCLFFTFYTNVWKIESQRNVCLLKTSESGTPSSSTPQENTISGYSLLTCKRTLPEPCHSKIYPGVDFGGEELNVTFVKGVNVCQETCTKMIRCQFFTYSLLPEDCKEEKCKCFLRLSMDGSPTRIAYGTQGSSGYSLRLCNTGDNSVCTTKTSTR

[7] = target: DPP‐4 (Homo sapiens, UniProt P27487); assay: Serine protease selectivity: DPP‐4; type: biochemical; details: at 10 μmol/L; read-out: inhibitory activity against DPP‐4
DPP‐4, sequence (P27487 whole entry, species assumed): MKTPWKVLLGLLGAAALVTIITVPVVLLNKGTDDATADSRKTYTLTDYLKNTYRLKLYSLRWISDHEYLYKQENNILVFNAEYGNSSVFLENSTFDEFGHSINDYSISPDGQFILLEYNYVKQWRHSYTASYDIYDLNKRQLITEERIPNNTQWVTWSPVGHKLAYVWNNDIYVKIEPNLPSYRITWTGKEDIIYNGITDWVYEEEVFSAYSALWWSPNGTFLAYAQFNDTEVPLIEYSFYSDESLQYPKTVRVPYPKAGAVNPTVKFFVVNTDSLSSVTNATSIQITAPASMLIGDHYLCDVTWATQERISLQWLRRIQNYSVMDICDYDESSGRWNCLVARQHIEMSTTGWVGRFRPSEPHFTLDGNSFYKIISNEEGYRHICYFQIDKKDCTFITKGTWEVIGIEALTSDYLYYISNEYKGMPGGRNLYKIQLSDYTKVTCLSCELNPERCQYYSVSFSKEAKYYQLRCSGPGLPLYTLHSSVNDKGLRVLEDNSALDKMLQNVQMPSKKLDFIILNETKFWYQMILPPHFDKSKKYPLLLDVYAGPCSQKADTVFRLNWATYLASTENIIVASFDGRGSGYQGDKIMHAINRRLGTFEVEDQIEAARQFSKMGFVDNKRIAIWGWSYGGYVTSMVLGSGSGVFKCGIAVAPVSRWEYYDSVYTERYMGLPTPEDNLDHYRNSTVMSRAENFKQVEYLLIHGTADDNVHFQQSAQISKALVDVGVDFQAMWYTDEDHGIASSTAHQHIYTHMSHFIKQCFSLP

[8] = target: factor Xa (Homo sapiens, UniProt P00742); assay: Serine protease selectivity: factor Xa; type: biochemical; details: at 10 μmol/L; read-out: inhibitory activity against factor Xa
factor Xa, sequence (P00742 235-488 limits assumed): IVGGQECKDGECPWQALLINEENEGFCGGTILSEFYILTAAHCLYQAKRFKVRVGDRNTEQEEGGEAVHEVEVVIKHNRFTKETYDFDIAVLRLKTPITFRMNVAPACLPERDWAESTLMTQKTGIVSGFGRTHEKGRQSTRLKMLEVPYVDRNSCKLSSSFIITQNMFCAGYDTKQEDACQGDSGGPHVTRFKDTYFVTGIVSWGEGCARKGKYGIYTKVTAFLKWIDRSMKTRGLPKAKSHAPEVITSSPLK
factor Xa, sequence (P00742 41-179 partner limits assumed): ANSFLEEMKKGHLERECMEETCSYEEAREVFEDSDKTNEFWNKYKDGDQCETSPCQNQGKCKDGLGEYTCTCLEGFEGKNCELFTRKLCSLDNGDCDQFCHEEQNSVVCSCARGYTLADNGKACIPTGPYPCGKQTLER

[9] = tested on: plasma branched‐chain amino acids (BCAA); assay: Oral protein challenge in rats (plasma BCAA); type: in vivo, Sprague‐Dawley rats; details: 10, 30 mg/kg oral, ≤4 hour prior to whey protein load 2.5 g/kg
Method: Male Sprague‐Dawley rats were obtained from CLEA Japan Inc. (Tokyo, Japan). Eight‐week‐old rats were randomized into three groups on the basis of body weight and body weight change before the experiment (n = 4). SCO‐792 (10, 30 mg/kg in a 0.5% (w/v) methylcellulose solution) was then orally administered 1, 2, 4, and 6 hours before an oral whey protein load (2.5 g/kg; SAVAS whey protein 100, Meiji, Japan), and blood samples were collected at indicated time points for the measurement of plasma branched‐chain amino acids (BCAA).
Plasma BCAA concentration was measured using an enzymatic spectrophotometric assay as described by Beckett.14 Briefly, bacterial leucine dehydrogenase was used to catalyze the oxidation of BCAA, and the production of NADH was measured using a spectrophotometer (excitation 355 nm, emission 460 nm). L‐leucine was used to generate a standard curve to determine sample concentrations.

[10] = target: T3, human recombinant enteropeptidase (Homo sapiens, UniProt P98073); assay: Dissociation assay (rapid dilution); type: biochemical
T3 construct: purchased ITSI‐Biosciences (Johnstown, PA)
T3 sequence (P98073 785-1019 limits assumed): as the sequence (P98073 785-1019 limits assumed) above
Method: For the dissociation assay, compounds were dissolved in DMSO and then diluted in the enteropeptidase assay buffer. Ten microliters of compound solution was added to a 96‐well plate, and then 10 μL of 100 mU/mL human recombinant enteropeptidase solution was added to the plate and incubated at room temperature for 120 minutes. The concentration of the compound was equal to 10‐fold of the IC50 value upon incubation for 120 minutes. After this incubation, 2 μL of an compound‐enzyme mixture was transferred to a 96‐well black plate, and then 200 μL of substrate solution [3 μmol/L 5FAM‐Abu‐Gly‐Asp‐Asp‐Asp‐Lys‐Ile‐Val‐Gly‐Gly‐Lys(CPQ2)‐Lys‐Lys‐NH2] was added to the well. By its rapid dilution, the concentration of the inhibitor dropped from 10‐fold above the IC50 to 10‐fold below it. The fluorescence was measured every […] at an excitation wavelength of 485 nm and an emission wavelength of 520 nm using an EnVision multilabel plate reader. The progress curves were fitted to the following equations to determine the values for k off and dissociation half‐life, t 1/2.(3) F=vst+((v0-vs)(1-e^-kofft))/koff+F0 (4) t1/2=ln(2)/koff

[11] = target: T3, human recombinant enteropeptidase; assay: Enteropeptidase enzyme assay (human recombinant enteropeptidase, FRET substrate); type: biochemical; details: 120‐minute incubation; read-out: IC50 (95% confidence intervals), human enteropeptidase activity
Method: In the HTS, enzyme and substrate were dissolved in the enteropeptidase assay buffer [50 mmol/L Tricine, pH 8.0, 0.01% (w/v) Tween20, and 10 mmol/L CaCl2]. Twenty‐five nanoliters of compound solution dissolved in DMSO was added to a 1536‐well black plate, and then 2 μL of 90 mU/mL human recombinant enteropeptidase solution was added to the plate and incubated at room temperature for 60 minutes. Next, 2 μL of substrate solution [2.1 μmol/L QSY21‐Gly‐Asp‐Asp‐Asp‐Lys‐Ile‐Val‐Gly‐Gly‐Lys (Cy5)] was added to the plate and incubated at room temperature for 30 minutes. After incubation, 2 μL of 30 mmol/L H2SO4 solution was added to stop the reaction. The fluorescence was measured at an excitation wavelength of 620 nm and an emission wavelength of 685 nm by multilabel plate reader EnVision (PerkinElmer, Waltham, MA).
For kinetic analysis, compounds were dissolved in DMSO and then diluted in the enteropeptidase assay buffer. […] The fluorescence was measured every minute at an excitation wavelength of 485 nm and an emission wavelength of 520 nm using an EnVision multilabel plate reader. The progress curves were fitted to the following equation to determine the values for k obs, the apparent rate constant from initial rate v 0 to steady state rate v s:(1) F=vst+(v0-vs)(1-e^-kobst)/kobs+F0, where t is the time, F is the fluorescence, and F 0 is the fluorescence at time t = 0. […]

[12] = tested on: chymotrypsin; assay: Serine protease selectivity: chymotrypsin; type: biochemical; details: at 10 μmol/L
[13] = target: T3, human recombinant enteropeptidase; assay: Kinetic analysis of enteropeptidase inhibition (progress curves, k obs); type: biochemical; details: for k inact/K I: 5FAM‐labeled substrate 0.7 μmol/L, corrected for [S]/Km
Method: For kinetic analysis, compounds were dissolved in DMSO and then diluted in the enteropeptidase assay buffer. Five microliters of compound solution was added to a 384‐well black plate followed by 5 μL of substrate solution [2.1 μmol/L 5FAM‐Abu‐Gly‐Asp‐Asp‐Asp‐Lys‐Ile‐Val‐Gly‐Gly‐Lys (CPQ2)‐Lys‐Lys‐NH2] and 5 μL of 24 mU/mL human recombinant enteropeptidase solution and mixed. The final concentration of substrate was 0.7 μmol/L, which is almost the same as the K m value. The fluorescence was measured every minute at an excitation wavelength of 485 nm and an emission wavelength of 520 nm using an EnVision multilabel plate reader. The progress curves were fitted to the following equation to determine the values for k obs, the apparent rate constant from initial rate v 0 to steady state rate v s:(1) F=vst+(v0-vs)(1-e^-kobst)/kobs+F0, where t is the time, F is the fluorescence, and F 0 is the fluorescence at time t = 0.
The k inact/K I,app value was determined as the slope of the [I] vs k obs plot, and the corrected k inact/K I value was also estimated according to the following equation:(2) kinact/KI,app=kinact/KI/(1+[S]/Km), where [I] is the concentration of inhibitor, [S] is the concentration of substrate, and K m is the Michaelis–Menten constant.

[14] = Chemical stability; type: physicochemical
[15] = male, Sprague-Dawley, rat, in vivo, intravenous, 0.2 mg/kg, mean ± SD (n = 3)
[16] = male, Sprague-Dawley, rat, in vivo, oral, 10 mg/kg, mean ± SD (n = 3)
[17] = 120 min preincubation, rapid dilution

K m value for enteropeptidase [1]: 0.7 µmol/L
Molecule: 5FAM‐Abu‐Gly‐Asp‐Asp‐Asp‐Lys‐Ile‐Val‐Gly‐Gly‐Lys (CPQ2)‐Lys‐Lys‐NH2 [5FAM‐labeled substrate]

Molecule: N=C(N)Nc1ccc(C(=O)Oc2ccc3c(c2)OC[C@H]3CC(=O)N[C@@H](CC(=O)O)C(=O)O)cc1.O [SCO‐792, N‐({(3S)‐6‐[(4‐carbamimidamidobenzoyl)oxy]‐2,3‐dihydro‐1‐benzofuran‐3‐yl}acetyl)‐L‐aspartic acid hydrate]
inhibition at 10 µM [2]: < 50%
BA ([3]; from AUC0‐24 h oral 10 mg/kg vs intravenous 0.2 mg/kg): 0.4%
AUC(0-inf) [3, 15]: 304 ± 30 ng·h/mL
half-life [3, 15]: 312 ± 108 min
AUC(0-t) [3, 15]: 303 ± 23 ng·h/mL
clearance ([3]; male, Sprague-Dawley, rat, in vivo, intravenous, 0.2 mg/kg, mean ± SD (n = 3), read-out: CLp (converted)): 11.1 mL/min/kg
Vd ([3]; male, Sprague-Dawley, rat, in vivo, intravenous, 0.2 mg/kg, mean ± SD (n = 3), read-out: Vss): 1.29 ± 0.299 L/kg
Cmax at 5 min ([3]; male, Sprague-Dawley, rat, in vivo, intravenous, 0.2 mg/kg, observed at 5 minutes, mean ± SD (n = 3), read-out: C max (C5 min)): 564 ± 58 ng/mL
AUC(0-inf) [3, 16]: 49.8 ± 5.4 ng·h/mL
Cmax [3, 16]: 6.6 ± 1.36 ng/mL
Tmax [3, 16]: 1.7 ± 0.6 h
half-life [3, 16]: 264 ± 30 min
AUC(0-t) [3, 16]: 54.1 ± 7.5 ng·h/mL
inhibition at 10 µM [4]: < 50%
IC50 [5]: 460 nM
IC50 [6]: 16 nM
inhibition at 10 µM [7]: < 50%
inhibition at 10 µM [8]: < 50%
effect on plasma BCAA elevations induced by oral protein dosing [9]: effectively and dose‐dependently inhibited
reversibility of inhibition [10]: reversible
dissociation t 1/2 [10, 17]: 14 h
koff [10, 17]: 1.31e-05 s⁻¹
IC50 [11]: 5.4 nM
inhibitory activity against chymotrypsin [12]: < 50%
time dependence of enteropeptidase inhibition [13]: time‐dependent
k inact/K I [13]: 82 000 /mol/L s

Molecule: Cc1cc(OC(=O)c2ccc(NC(=N)N)cc2)no1 [T‐0046812]
chemical stability ([14]; pH 1.2): unstable
chemical stability ([14]; pH 6.8): unstable
IC50 [11]: 140 nM
time dependence of enteropeptidase inhibition [13]: time‐dependent
k inact/K I [13]: 5300 mol⁻¹ L⁻¹ s⁻¹

K m value for enteropeptidase [1]: 230 µmol/L
Molecule: H-GDDDDK-βNA [GDDDDK‐βNA]
